Experimental data from patent publication US20110117554A1, “Formamide-containing mixtures for detecting nucleic acids” (priority 2009, published 2011).

Assay: Melting temperatures of 20mer nucleic acid duplexes in formamide-water mixtures
Assay type: physicochemical
Conditions: for Melting Temperatures in Formamide: 1.5 μM single strand, 100 mM NaCl, 10 mM K-phosphate pH 7, 0.1 mM EDTA
Protocol: A mismatch in 50% formamide in the DNA strand lowers the melting temperature of the duplex containing LNA-8 from 72 to 66 to 62° C.
As the results in the Tables show, useful melting temperatures are obtained when the oligonucleotides bound in duplex contain at least 15 nucleotide units that have 2′-OMe ribonucleotides as their building blocks. Comparably useful melting temperatures are obtained when the oligonucleotides contain locked nucleic acid (LNA) carbohydrate analogs, as described in [Koshkin et al., 1998]. The data in the Tables also makes clear that the binding between two complementary DNA strands of this length is not useful in 50% formamide, as it is below 30° C. at 50% formamide.

Row | Substance | Tm (Stability of Duplexes in Formamide and Water) (0 % formamide (Table 3)) [°C] | Melting Temperatures in Formamide (0 percent formamide) [°C] | Tm (Stability of Duplexes in Formamide and Water) (25 % formamide (Table 3)) [°C] | Melting Temperatures in Formamide (25 percent formamide) [°C] | Tm (Stability of Duplexes in Formamide and Water) (50 % formamide (Table 3)) [°C] | Melting Temperatures in Formamide (50 percent formamide) [°C] | Tm (Stability of Duplexes in Formamide and Water) (70 % formamide (Table 3)) [°C] | Tm (Stability of Duplexes in Formamide and Water) (70 % formamide (Table 3), listed as model 20 mer) [°C] | Tm (Stability of Duplexes in Formamide and Water) (90 % formamide (Table 3)) [°C]
1 | DNA:DNA: 20mer DNA duplex of strand-1 5′-CTTCAGGTACTGAGTCAAGC-3′ (SEQ ID NO 3) and strand-2 (SEQ ID NO 4) (chain 1 CTTCAGGTACTGAGTCAAGC; chain 2 GCTTGACTCAGTACCTGAAG; DNA, backbone and methylation of C not given here) | 61 | 62 | 44 | 46 | 28 | 29 | <20 | ≤ 20 | –
2 | RNA:RNA: 20mer RNA duplex 5′-CUUCAGGUACUGAGUCAAGC-3′ (SEQ ID NO 1) with 3′-GAAGUCCAUGACUCAGUUCG-5′ (SEQ ID NO 2) (chain 2 GCUUGACUCAGUACCUGAAG; RNA, backbone not given here) | 73 | 73 | 60 | 61 | 48 | 49 | 40 | – | <25
